# Laboratory results taken from ChEMBL document CHEMBL1759982, “Hybrid compounds as new Bcr/Abl inhibitors” (Bioorg Med Chem Lett, 2011).
# The source made the active and inactive calls. The rule behind the calls is not given here.
# Biological target: Bcr/Abl fusion protein (Homo sapiens, UniProt P00519)
# Assay: Inhibition of Bcr/Abl by FRET-based Z-lyte assay
# Type: protein assay
# Details: not given
# Sequence of Bcr/Abl fusion protein (P00519 whole entry, the tested form may be a part): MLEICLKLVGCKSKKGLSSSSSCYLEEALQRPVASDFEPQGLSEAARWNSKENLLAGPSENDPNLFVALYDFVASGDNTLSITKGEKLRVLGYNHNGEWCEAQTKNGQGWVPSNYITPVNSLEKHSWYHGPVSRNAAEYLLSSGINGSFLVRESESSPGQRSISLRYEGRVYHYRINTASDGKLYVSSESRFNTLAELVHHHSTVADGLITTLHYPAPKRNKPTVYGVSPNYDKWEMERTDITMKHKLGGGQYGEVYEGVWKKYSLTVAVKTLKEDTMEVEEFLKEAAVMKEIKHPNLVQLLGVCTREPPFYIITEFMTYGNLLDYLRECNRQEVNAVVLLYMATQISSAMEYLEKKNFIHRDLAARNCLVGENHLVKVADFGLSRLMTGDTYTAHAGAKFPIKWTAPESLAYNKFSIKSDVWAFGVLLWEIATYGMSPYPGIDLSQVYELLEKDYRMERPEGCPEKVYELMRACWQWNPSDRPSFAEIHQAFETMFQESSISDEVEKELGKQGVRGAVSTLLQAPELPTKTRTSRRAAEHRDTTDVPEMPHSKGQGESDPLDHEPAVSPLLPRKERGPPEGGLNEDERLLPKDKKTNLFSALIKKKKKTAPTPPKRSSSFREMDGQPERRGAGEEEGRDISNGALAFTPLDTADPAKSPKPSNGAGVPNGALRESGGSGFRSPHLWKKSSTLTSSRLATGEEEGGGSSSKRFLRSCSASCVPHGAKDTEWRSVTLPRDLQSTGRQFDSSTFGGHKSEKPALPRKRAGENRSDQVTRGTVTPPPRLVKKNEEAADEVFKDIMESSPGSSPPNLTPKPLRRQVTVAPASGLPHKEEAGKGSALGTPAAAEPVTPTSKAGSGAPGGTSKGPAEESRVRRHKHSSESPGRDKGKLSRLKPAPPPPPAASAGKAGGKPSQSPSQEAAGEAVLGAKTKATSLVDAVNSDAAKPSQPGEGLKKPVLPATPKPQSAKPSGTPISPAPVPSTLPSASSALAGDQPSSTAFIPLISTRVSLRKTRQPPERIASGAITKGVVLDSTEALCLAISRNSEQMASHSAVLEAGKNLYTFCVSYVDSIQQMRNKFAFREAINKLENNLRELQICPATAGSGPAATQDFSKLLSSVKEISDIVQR
# Sequence of Bcr/Abl fusion protein (P11274 whole entry, further chain, the tested form may be a part): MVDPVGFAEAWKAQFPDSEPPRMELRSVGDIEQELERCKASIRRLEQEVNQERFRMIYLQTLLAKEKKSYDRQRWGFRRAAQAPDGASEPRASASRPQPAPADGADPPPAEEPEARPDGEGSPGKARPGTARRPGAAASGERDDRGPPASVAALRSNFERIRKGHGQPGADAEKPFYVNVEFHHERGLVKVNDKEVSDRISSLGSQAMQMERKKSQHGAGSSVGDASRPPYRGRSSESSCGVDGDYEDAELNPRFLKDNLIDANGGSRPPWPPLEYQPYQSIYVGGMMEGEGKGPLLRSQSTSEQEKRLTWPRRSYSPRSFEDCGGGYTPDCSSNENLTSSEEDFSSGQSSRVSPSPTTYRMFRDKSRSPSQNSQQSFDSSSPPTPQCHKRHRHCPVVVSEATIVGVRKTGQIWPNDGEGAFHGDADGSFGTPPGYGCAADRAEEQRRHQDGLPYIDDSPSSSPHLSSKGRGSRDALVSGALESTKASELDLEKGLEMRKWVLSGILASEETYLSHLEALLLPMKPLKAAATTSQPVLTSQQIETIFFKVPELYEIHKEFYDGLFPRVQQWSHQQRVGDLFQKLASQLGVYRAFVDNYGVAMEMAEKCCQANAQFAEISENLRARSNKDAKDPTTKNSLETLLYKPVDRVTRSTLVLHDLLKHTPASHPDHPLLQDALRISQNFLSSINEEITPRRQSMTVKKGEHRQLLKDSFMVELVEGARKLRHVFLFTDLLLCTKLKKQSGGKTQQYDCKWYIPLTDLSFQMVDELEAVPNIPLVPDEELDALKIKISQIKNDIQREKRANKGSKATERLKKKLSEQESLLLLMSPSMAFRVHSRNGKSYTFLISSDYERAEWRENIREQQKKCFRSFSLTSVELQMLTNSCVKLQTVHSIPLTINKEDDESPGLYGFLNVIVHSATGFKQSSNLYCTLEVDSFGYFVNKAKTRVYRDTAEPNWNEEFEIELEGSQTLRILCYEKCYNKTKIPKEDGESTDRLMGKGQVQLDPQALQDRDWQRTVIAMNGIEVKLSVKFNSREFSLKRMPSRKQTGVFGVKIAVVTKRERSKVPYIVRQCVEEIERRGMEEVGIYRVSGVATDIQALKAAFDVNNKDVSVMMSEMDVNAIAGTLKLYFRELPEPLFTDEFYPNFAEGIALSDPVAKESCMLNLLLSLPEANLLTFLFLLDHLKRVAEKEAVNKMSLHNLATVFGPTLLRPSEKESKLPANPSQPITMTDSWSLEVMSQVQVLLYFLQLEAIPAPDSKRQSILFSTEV
row,Compound,IC50
1,Cc1cn(-c2cc(NC(=O)c3ccc(C)c(Nc4nc(-c5cccnc5)cs4)c3)cc(C(C)(C)C)c2)cn1,0.0201 µM
2,Cc1ccc(C(=O)Nc2cc(-c3cn(C)nn3)cc(C(F)(F)F)c2)cc1Nc1nc(-c2cccnc2)cs1,0.277 µM
3,Cc1ccc(C(=O)Nc2cc(-c3cnn(C)c3)cc(C(F)(F)F)c2)cc1Nc1nc(-c2cccnc2)cs1,0.491 µM
4,Cc1cn(-c2cc(NC(=O)c3cccc(Nc4nc(-c5cccnc5)cs4)c3)cc(C(F)(F)F)c2)cn1,3.78 µM
5,Cc1cn(-c2cc(NC(=O)c3ccc(C)c(Nc4nc(-c5cccnc5)cs4)c3)cc(C34CC5CC(CC(C5)C3)C4)c2)cn1,> 2 µM
6,Cc1cn(-c2cc(NC(=O)c3ccc(C)c(Nc4nc(-c5cccnc5)cs4)c3)cc(C(C)C)c2)cn1,0.177 µM

# Tested on: K562
# Assay: Antiproliferative activity against human K562 cells
# Type: functional, cell-based
# Details: not given
row,Compound,IC50
1,Cc1cn(-c2cc(NC(=O)c3ccc(C)c(Nc4nc(-c5cccnc5)cs4)c3)cc(C(C)(C)C)c2)cn1,0.01 µM
2,Cc1ccc(C(=O)Nc2cc(-c3cn(C)nn3)cc(C(F)(F)F)c2)cc1Nc1nc(-c2cccnc2)cs1,0.057 µM
3,Cc1ccc(NC(=O)c2ccc(CN3CCN(C)CC3)cc2)cc1Nc1nccc(-c2cccnc2)n1 [IMATINIB],0.38 µM
4,Cc1cn(-c2cc(NC(=O)c3ccc(C)c(Nc4nccc(-c5cccnc5)n4)c3)cc(C(F)(F)F)c2)cn1 [NILOTINIB],0.0065 µM
5,Cc1ccc(C(=O)Nc2cc(-c3cnn(C)c3)cc(C(F)(F)F)c2)cc1Nc1nc(-c2cccnc2)cs1,0.027 µM
6,Cc1cn(-c2cc(NC(=O)c3cccc(Nc4nc(-c5cccnc5)cs4)c3)cc(C(F)(F)F)c2)cn1,3.19 µM
7,Cc1cn(-c2cc(NC(=O)c3ccc(C)c(Nc4nc(-c5cccnc5)cs4)c3)cc(C34CC5CC(CC(C5)C3)C4)c2)cn1,1.06 µM
8,Cc1cn(-c2cc(NC(=O)c3ccc(C)c(Nc4nc(-c5cccnc5)cs4)c3)cc(C(C)C)c2)cn1,0.031 µM

# Tested on: not listed separately
# Assay: Antiproliferative activity against human KU812 cells
# Type: functional, cell-based
# Details: not given
row,Compound,IC50
1,Cc1cn(-c2cc(NC(=O)c3ccc(C)c(Nc4nc(-c5cccnc5)cs4)c3)cc(C(C)(C)C)c2)cn1,0.011 µM
2,Cc1ccc(C(=O)Nc2cc(-c3cn(C)nn3)cc(C(F)(F)F)c2)cc1Nc1nc(-c2cccnc2)cs1,0.09 µM
3,Cc1ccc(NC(=O)c2ccc(CN3CCN(C)CC3)cc2)cc1Nc1nccc(-c2cccnc2)n1 [IMATINIB],0.337 µM
4,Cc1cn(-c2cc(NC(=O)c3ccc(C)c(Nc4nccc(-c5cccnc5)n4)c3)cc(C(F)(F)F)c2)cn1 [NILOTINIB],0.0034 µM
5,Cc1ccc(C(=O)Nc2cc(-c3cnn(C)c3)cc(C(F)(F)F)c2)cc1Nc1nc(-c2cccnc2)cs1,0.0271 µM
6,Cc1cn(-c2cc(NC(=O)c3cccc(Nc4nc(-c5cccnc5)cs4)c3)cc(C(F)(F)F)c2)cn1,2.73 µM
7,Cc1cn(-c2cc(NC(=O)c3ccc(C)c(Nc4nc(-c5cccnc5)cs4)c3)cc(C34CC5CC(CC(C5)C3)C4)c2)cn1,2.81 µM
8,Cc1cn(-c2cc(NC(=O)c3ccc(C)c(Nc4nc(-c5cccnc5)cs4)c3)cc(C(C)C)c2)cn1,0.051 µM

# Tested on: K562
# Assay: Antiproliferative activity against human imatinib-resistant K562 cells
# Type: functional, cell-based
# Details: not given
row,Compound,IC50
1,Cc1cn(-c2cc(NC(=O)c3ccc(C)c(Nc4nc(-c5cccnc5)cs4)c3)cc(C(C)(C)C)c2)cn1,0.64 µM
2,Cc1ccc(C(=O)Nc2cc(-c3cn(C)nn3)cc(C(F)(F)F)c2)cc1Nc1nc(-c2cccnc2)cs1,3.51 µM
3,Cc1ccc(NC(=O)c2ccc(CN3CCN(C)CC3)cc2)cc1Nc1nccc(-c2cccnc2)n1 [IMATINIB],0.00605 µM
4,Cc1cn(-c2cc(NC(=O)c3ccc(C)c(Nc4nccc(-c5cccnc5)n4)c3)cc(C(F)(F)F)c2)cn1 [NILOTINIB],0.26 µM
5,Cc1ccc(C(=O)Nc2cc(-c3cnn(C)c3)cc(C(F)(F)F)c2)cc1Nc1nc(-c2cccnc2)cs1,5.38 µM
6,Cc1cn(-c2cc(NC(=O)c3cccc(Nc4nc(-c5cccnc5)cs4)c3)cc(C(F)(F)F)c2)cn1,1.72 µM
7,Cc1cn(-c2cc(NC(=O)c3ccc(C)c(Nc4nc(-c5cccnc5)cs4)c3)cc(C34CC5CC(CC(C5)C3)C4)c2)cn1,11.8 µM
8,Cc1cn(-c2cc(NC(=O)c3ccc(C)c(Nc4nc(-c5cccnc5)cs4)c3)cc(C(C)C)c2)cn1,2.91 µM

# Biological target: Bcr/Abl fusion protein (Homo sapiens) (UniProt P00519+P11274)
# Assay: Inhibition of Bcr/Abl autophosphorylation in human K562 cells after 4 hrs by Western blotting
# Type: cell-based
# Details: not given
# Sequence of Bcr/Abl fusion protein (Homo sapiens) (P00519 whole entry, looked up, the tested form may be a part): as the sequence (P00519 whole entry, the tested form may be a part) above
# Sequence of Bcr/Abl fusion protein (Homo sapiens) (P11274 whole entry, looked up, the tested form may be a part): as the sequence (P11274 whole entry, further chain, the tested form may be a part) above
row,Compound,inhibition
1,Cc1cn(-c2cc(NC(=O)c3ccc(C)c(Nc4nc(-c5cccnc5)cs4)c3)cc(C(C)(C)C)c2)cn1,Active

# Tested on: K562
# Assay: Cell cycle arrest in human K562 cells assessed as accumulation at G0/G1 phase at 20 nM by Flow cytometry (reference value: 49.42%)
# Type: functional
# Details: not given
row,Compound,Activity
1,Cc1cn(-c2cc(NC(=O)c3ccc(C)c(Nc4nc(-c5cccnc5)cs4)c3)cc(C(C)(C)C)c2)cn1,55.19%

# Tested on: K562
# Assay: Cell cycle arrest in human K562 cells assessed as accumulation at G0/G1 phase at 50 nM by Flow cytometry (reference value: 49.42%)
# Type: functional
# Details: not given
row,Compound,Activity
1,Cc1cn(-c2cc(NC(=O)c3ccc(C)c(Nc4nc(-c5cccnc5)cs4)c3)cc(C(C)(C)C)c2)cn1,69.3%

# Tested on: K562
# Assay: Cell cycle arrest in human K562 cells assessed as accumulation at G0/G1 phase at 100 nM by Flow cytometry (reference value: 49.42%)
# Type: functional
# Details: not given
row,Compound,Activity
1,Cc1cn(-c2cc(NC(=O)c3ccc(C)c(Nc4nc(-c5cccnc5)cs4)c3)cc(C(C)(C)C)c2)cn1,75.53%

# Tested on: K562
# Assay: Cell cycle arrest in human K562 cells assessed as accumulation at S phase at 20 nM by Flow cytometry (reference value: 46.15%)
# Type: functional
# Details: not given
row,Compound,Activity
1,Cc1cn(-c2cc(NC(=O)c3ccc(C)c(Nc4nc(-c5cccnc5)cs4)c3)cc(C(C)(C)C)c2)cn1,42.66%

# Tested on: K562
# Assay: Cell cycle arrest in human K562 cells assessed as accumulation at S phase at 50 nM by Flow cytometry (reference value: 46.15%)
# Type: functional
# Details: not given
row,Compound,Activity
1,Cc1cn(-c2cc(NC(=O)c3ccc(C)c(Nc4nc(-c5cccnc5)cs4)c3)cc(C(C)(C)C)c2)cn1,30.45%

# Tested on: K562
# Assay: Cell cycle arrest in human K562 cells assessed as accumulation at S phase at 100 nM by Flow cytometry (reference value: 46.15%)
# Type: functional
# Details: not given
row,Compound,Activity
1,Cc1cn(-c2cc(NC(=O)c3ccc(C)c(Nc4nc(-c5cccnc5)cs4)c3)cc(C(C)(C)C)c2)cn1,24.47%

# Tested on: K562
# Assay: Cell cycle arrest in human K562 cells assessed as accumulation at G2/M1 phase at 20 nM by Flow cytometry (reference value: 4.43%)
# Type: functional
# Details: not given
row,Compound,Activity
1,Cc1cn(-c2cc(NC(=O)c3ccc(C)c(Nc4nc(-c5cccnc5)cs4)c3)cc(C(C)(C)C)c2)cn1,2.15%

# Tested on: K562
# Assay: Cell cycle arrest in human K562 cells assessed as accumulation at G2/M1 phase at 50 nM by Flow cytometry (reference value: 4.43%)
# Type: functional
# Details: not given
row,Compound,Activity
1,Cc1cn(-c2cc(NC(=O)c3ccc(C)c(Nc4nc(-c5cccnc5)cs4)c3)cc(C(C)(C)C)c2)cn1,0.21%

# Tested on: K562
# Assay: Cell cycle arrest in human K562 cells assessed as accumulation at G2/M1 phase at 100 nM by Flow cytometry (reference value: 4.43%)
# Type: functional
# Details: not given
row,Compound,Activity
1,Cc1cn(-c2cc(NC(=O)c3ccc(C)c(Nc4nc(-c5cccnc5)cs4)c3)cc(C(C)(C)C)c2)cn1,0%

# Tested on: K562
# Assay: Induction of apoptosis in human K562 cells assessed as viable cells at 20 nM using annexin V-propidium iodide and annexin V staining by flow cytometry (reference value: 87.02%)
# Type: functional
# Details: read-out: Activity
row,Compound,viability at 0.02 µM
1,Cc1cn(-c2cc(NC(=O)c3ccc(C)c(Nc4nc(-c5cccnc5)cs4)c3)cc(C(C)(C)C)c2)cn1,95.7%

# Tested on: K562
# Assay: Induction of apoptosis in human K562 cells assessed as viable cells at 50 nM using annexin V-propidium iodide and annexin V staining by flow cytometry (reference value: 87.02%)
# Type: functional
# Details: read-out: Activity
row,Compound,viability at 0.05 µM
1,Cc1cn(-c2cc(NC(=O)c3ccc(C)c(Nc4nc(-c5cccnc5)cs4)c3)cc(C(C)(C)C)c2)cn1,73.8%

# Tested on: K562
# Assay: Induction of apoptosis in human K562 cells assessed as viable cells at 100 nM using annexin V-propidium iodide and annexin V staining by flow cytometry (reference value: 87.02%)
# Type: functional
# Details: read-out: Activity
row,Compound,viability at 0.1 µM
1,Cc1cn(-c2cc(NC(=O)c3ccc(C)c(Nc4nc(-c5cccnc5)cs4)c3)cc(C(C)(C)C)c2)cn1,56.7%

# Tested on: K562
# Assay: Induction of apoptosis in human K562 cells assessed as early apoptotic cells at 20 nM using annexin V-propidium iodide and annexin V staining by flow cytometry (reference value: 3.34%)
# Type: functional
# Details: not given
row,Compound,Activity
1,Cc1cn(-c2cc(NC(=O)c3ccc(C)c(Nc4nc(-c5cccnc5)cs4)c3)cc(C(C)(C)C)c2)cn1,5.06%

# Tested on: K562
# Assay: Induction of apoptosis in human K562 cells assessed as early apoptotic cells at 50 nM using annexin V-propidium iodide and annexin V staining by flow cytometry (reference value: 3.34%)
# Type: functional
# Details: not given
row,Compound,Activity
1,Cc1cn(-c2cc(NC(=O)c3ccc(C)c(Nc4nc(-c5cccnc5)cs4)c3)cc(C(C)(C)C)c2)cn1,6.87%

# Tested on: K562
# Assay: Induction of apoptosis in human K562 cells assessed as early apoptotic cells at 100 nM using annexin V-propidium iodide and annexin V staining by flow cytometry (reference value: 3.34%)
# Type: functional
# Details: not given
row,Compound,Activity
1,Cc1cn(-c2cc(NC(=O)c3ccc(C)c(Nc4nc(-c5cccnc5)cs4)c3)cc(C(C)(C)C)c2)cn1,11.11%

# Tested on: K562
# Assay: Induction of apoptosis in human K562 cells assessed as late apoptotic cells at 20 nM using annexin V-propidium iodide and annexin V staining by flow cytometry (reference value: […]%)
# Type: functional
# Details: not given
row,Compound,Activity
1,Cc1cn(-c2cc(NC(=O)c3ccc(C)c(Nc4nc(-c5cccnc5)cs4)c3)cc(C(C)(C)C)c2)cn1,8.15%

# Tested on: K562
# Assay: Induction of apoptosis in human K562 cells assessed as late apoptotic cells at 50 nM using annexin V-propidium iodide and annexin V staining by flow cytometry (reference value: […]%)
# Type: functional
# Details: not given
row,Compound,Activity
1,Cc1cn(-c2cc(NC(=O)c3ccc(C)c(Nc4nc(-c5cccnc5)cs4)c3)cc(C(C)(C)C)c2)cn1,16.34%

# Tested on: K562
# Assay: Induction of apoptosis in human K562 cells assessed as late apoptotic cells at 100 nM using annexin V-propidium iodide and annexin V staining by flow cytometry (reference value: […]%)
# Type: functional
# Details: not given
row,Compound,Activity
1,Cc1cn(-c2cc(NC(=O)c3ccc(C)c(Nc4nc(-c5cccnc5)cs4)c3)cc(C(C)(C)C)c2)cn1,27.04%

# Tested on: K562
# Assay: Induction of apoptosis in human K562 cells assessed as pre-necrotic cells at 20 nM using annexin V-propidium iodide and annexin V staining by flow cytometry (reference value: 1.42%)
# Type: functional
# Details: not given
row,Compound,Activity
1,Cc1cn(-c2cc(NC(=O)c3ccc(C)c(Nc4nc(-c5cccnc5)cs4)c3)cc(C(C)(C)C)c2)cn1,1.14%

# Tested on: K562
# Assay: Induction of apoptosis in human K562 cells assessed as pre-necrotic cells at 50 nM using annexin V-propidium iodide and annexin V staining by flow cytometry (reference value: 1.42%)
# Type: functional
# Details: not given
row,Compound,Activity
1,Cc1cn(-c2cc(NC(=O)c3ccc(C)c(Nc4nc(-c5cccnc5)cs4)c3)cc(C(C)(C)C)c2)cn1,3.11%

# Tested on: K562
# Assay: Induction of apoptosis in human K562 cells assessed as pre-necrotic cells at 100 nM using annexin V-propidium iodide and annexin V staining by flow cytometry (reference value: 1.42%)
# Type: functional
# Details: not given
row,Compound,Activity
1,Cc1cn(-c2cc(NC(=O)c3ccc(C)c(Nc4nc(-c5cccnc5)cs4)c3)cc(C(C)(C)C)c2)cn1,5.18%
